pEC50: −log10 of the molar value.
Experiments:
DENV-2 = test: microbe, parasite or virus in culture; assay type: cell-based, DENV-2 16681; conditions: Dengue virus, DENV2, HepG2, 24 h, read-out: DENV-2 / HepG2 EC50
SARS-CoV-2 = test: microbe, parasite or virus in culture; assay type: cell-based, SARS-CoV-2 strain USA-WA1/2020; conditions: Severe acute respiratory syndrome coronavirus 2, HeLa-ACE2, 24 h, read-out: SARS-CoV-2 / HeLa-ACE2 EC50
RSV A2 = test: microbe, parasite or virus in culture; assay type: cell-based; conditions: human respiratory syncytial virus, HEp-2, 72 h, read-out: RSV A2 / Hep2 EC50
HRV 14 = test: microbe, parasite or virus in culture; assay type: cell-based, Human Rhinovirus 14 strain 1059; conditions: Rhinovirus B, H1-HeLa, 48 h, read-out: HRV / H1 HeLa B 14 EC50
in vitro [1] = conditions: human, hepg2 cells
in vitro [2] = conditions: human, hela-ace2 cells
in vitro [3] = conditions: human, hep2 cells
in vitro [4] = conditions: human, h1 hela cells

SMILES	pEC50 (DENV-2)	pEC50 (SARS-CoV-2)	pEC50 (RSV A2)	pEC50 (HRV 14)	CC50 at 72 h (in vitro [1])	CC50 at 24 h (in vitro [2])	CC50 (in vitro [3])	CC50 (in vitro [4])
C[C@]1(Cl)[C@H](n2cnc3c(=O)[nH]c(N)nc32)O[C@](F)(CO)[C@H]1O [Example 62, 2-amino-9-((2R,3R,4R,5S)-3-chloro-5-fluoro-4-hydroxy-5-(hydroxymethyl)-3-methyltetrahydrofuran-2-yl)-1,9-dihydro-6H-purin-6-one]	6.00 to 7.00	< 5.00	< 5.00	< 5.00	10 to 99 µM	> 99 µM	10 to 99 µM	10 to 99 µM
OC[C@@]1(F)O[C@@H](n2ccc3c(C4CC4)ncnc32)[C@H](O)[C@@H]1O [Example 54, (2S,3S,4R,5R)-5-(4-cyclopropyl-7H-pyrrolo[2,3-d]pyrimidin-7-yl)-2-fluoro-2-(hydroxymethyl)tetrahydrofuran-3,4-diol]	< 5.00		< 5.00	< 5.00	> 99 µM		> 99 µM	> 99 µM
Nc1ncnc2c1c(-c1nc3ccccc3s1)cn2[C@@H]1O[C@](F)(CO)[C@@H](O)C1(F)F [Example 55, (2S,3R,5R)-5-(4-amino-5-(benzo[d]thiazol-2-yl)-7H-pyrrolo[2,3-d]pyrimidin-7-yl)-2,4,4-trifluoro-2-(hydroxymethyl)tetrahydrofuran-3-ol]		> 7.00				1 to 10 µM		
N#Cc1cn([C@@H]2O[C@](F)(CO)[C@@H](O)[C@H]2O)c2nc[nH]c(=O)c12 [Example 37, 7-((2R,3R,4S,5S)-5-fluoro-3,4-dihydroxy-5-(hydroxymethyl)tetrahydrofuran-2-yl)-4-oxo-4,7-dihydro-3H-pyrrolo[2,3-d]pyrimidine-5-carbonitrile]	< 5.00	< 5.00	< 5.00	< 5.00	> 99 µM	> 99 µM	> 99 µM	> 99 µM
CCOc1nc(N)nc2c1ncn2[C@@H]1O[C@](F)(CO)[C@@H](O)[C@]1(F)Br [Example 68, (2S,3R,4S,5R)-5-(2-amino-6-ethoxy-9H-purin-9-yl)-4-bromo-2,4-difluoro-2-(hydroxymethyl)tetrahydrofuran-3-ol]	< 5.00	< 5.00	< 5.00	< 5.00	10 to 99 µM	> 99 µM	10 to 99 µM	10 to 99 µM
CNc1nc(N)nc2c1ncn2[C@@H]1O[C@](F)(COP(=O)(N[C@@H](C)C(=O)OC(C)C)Oc2ccccc2)[C@@H](O)[C@]1(F)Cl (single isomer, unassigned) [Example 58]	6.00 to 7.00	< 5.00	< 5.00	6.00 to 7.00	> 99 µM	> 99 µM	> 99 µM	> 99 µM
CC(C)OC(=O)[C@H](C)NP(=O)(OC[C@@]1(F)O[C@@H](n2cnc3c(=O)[nH]c(N)nc32)C(F)(F)[C@@H]1O)Oc1ccccc1 (stereo partly drawn) [Example 61, isopropyl ((((2S,3R,5R)-5-(2-amino-6-oxo-1,6-dihydro-9H-purin-9-yl)-2,4,4-trifluoro-3-hydroxytetrahydrofuran-2-yl)methoxy)(phenoxy)phosphoryl)-L-alaninate]	< 5.00				> 99 µM			
Cc1ncnc2c1ccn2[C@@H]1O[C@](F)(CO)[C@@H](O)[C@H]1O [Example 53, (2S,3S,4R,5R)-2-fluoro-2-(hydroxymethyl)-5-(4-methyl-7H-pyrrolo[2,3-d]pyrimidin-7-yl)tetrahydrofuran-3,4-diol]	5.00 to 6.00		< 5.00	< 5.00	10 to 99 µM		> 99 µM	> 99 µM
Nc1ncnc2c1c(C(F)(F)F)cn2[C@@H]1O[C@](F)(CO)[C@@H](O)[C@H]1O [Example 42, (2S,3S,4R,5R)-5-(4-amino-5-(trifluoromethyl)-7H-pyrrolo[2,3-d]pyrimidin-7-yl)-2-fluoro-2-(hydroxymethyl)tetrahydrofuran-3,4-diol]	> 7.00				< 1 µM			
